Test results as given in paper PMC4410478, “Larvicidal activity and possible mode of action of four flavonoids and two fatty acids identified in Millettia pinnata seed toward three mosquito species” (Parasites & Vectors, 2015).
Converted amounts (≈) assume the structure as drawn. Read-outs that look alike come from different tables or passages of the source.

Legend:
[1] = system: third instar Culex pipiens pallens larvae; assay: direct-contact mortality bioassay; conditions: for LC50: Culex pipiens, 24 h, read-out: LC50, mg/L (95% CL)
Description: (§1) A direct-contact mortality bioassay was used to evaluate the toxicity of all compounds to third instar larvae from the susceptible and wild mosquito populations. Each compound in acetone (for karanjin) or methanol (for the other compounds) was suspended in distilled water with Triton X-100 (20 μL/L). Groups of 20 mosquito larvae were separately put into paper cups (270 mL) containing each test compound solution (250 mL). The OPs temephos and fenthion served as positive controls and were similarly formulated. Negative controls consisted of the acetone– or methanol–Triton X-100 solution in distilled water. […] Treated and control (acetone– or methanol–Triton X-100 solution only) larvae were held under the same conditions as those used for colony maintenance. […] All treatments were replicated three times using 20 larvae per replicate.
(§2) In separate experiments, the efficacy of the 12 experimental liquid formulations was evaluated, as stated previously. Groups of 20 mosquito larvae were separately put into paper cups containing each test solution. Temephos 200 g/L EC served as a positive control. Negative controls consisted of the ethoxylated castor oil + polyoxyethylene dodecyl mono ether solution in distilled water or water. Mortalities were recorded, as stated previously. All treatments were replicated three times using 20 larvae per replicate.
(§3) Data were corrected for control mortality using Abbott’s formula [36]. The percentages of mortality were transformed to arcsine square-root values for analysis of variance (ANOVA). […] IC50 values and cAMP levels were subjected to ANOVA. The Bonferroni multiple-comparison method was used for comparison of means. Means ± SE of untransformed data are reported. Concentration–mortality data were subjected to probit analysis.

[2] = system: third instar Aedes aegypti larvae; assay: direct-contact mortality bioassay; conditions: for LC50: Aedes aegypti, 24 h, read-out: LC50, mg/L (95% CL)
Description: as §1, §2, §3

[3] = system: third instar larvae from wild Aedes albopictus; assay: direct-contact mortality bioassay; conditions: for LC50: Aedes albopictus, 24 h, read-out: LC50, mg/L (95% CL)
Description: as §1, §2, §3

[4] = system: octopamine sensitive adenylate cyclase, whole body homogenate from third instar A. aegypti larvae; assay: Determination of cyclic AMP level (octopamine sensitive adenylate cyclase activity); type: biochemical, Aedes aegypti; conditions: 100 μM test compound; octopamine 100 μM alone as comparator
Description: The in vitro octopamine sensitive adenylate cyclase activity was investigated according to the modified method of Pratt and Pryor [35]. The whole bodies of 75 third instar A. aegypti larvae (106.2 mg) were homogenized in 500 μL of 2 mM Tris-maleate buffer (pH 7.4) containing 0.8 mM ethylene glycol tetraacetic acid (EGTA). Adenylate cyclase activity was measured using a cAMP Biotrak Enzyme immunoassay system according to the manufacturer’s instructions. The assay was conducted in a total volume of 100 μL containing 80 mM Tris-maleate buffer, 5 mM theophylline (to inhibit phosphodiesterase activity), 2 mM MgSO4, 0.5 mM adenosine triphosphate (ATP), 0.2 mM EGTA, 50 μL of whole body homogenate (equivalent to 4.22 μg protein), and 1 μL of the test compounds in Tris-maleate buffer containing 0.2% ethanol. After incubation for 5 min at 20°C, the reaction was initiated by the addition of ATP. Incubation was carried out at 30°C for 3 min in a shaking water bath. The reaction was terminated by boiling for 2 min, and then the assay tube was cooled and centrifuged for 10 min at 8000 g. The 50 μL aliquots of the supernatant were assayed for cAMP level.
The polystyrene microplates (1 strip of 8 wells) coated with a goat anti-mouse polyclonal antibody were used. Fifty microliters of primary antibody (mouse monoclonal antibody) solution was added to each well except the blank wells (or the nonspecific binding (NSB) wells). The wells covered with the adhesive strip were incubated for 1 h at 25°C in a shaking incubator (480 rpm), followed by four times washing steps, each with 400 μL of wash buffer. The 50 μL of the test samples for cAMP determination and cAMP standard were added to wells. Control, blank (NSB), and zero standard wells were added with 50 μL of the diluent RD5-55 buffer. The 50 μL of cAMP conjugate (horseradish peroxidase-labeled cAMP) was then added to wells. The plate covered with a new adhesive strip was incubated for 2 h at 25°C on the shaker, followed by the four times washing steps. Then, 200 μL of substrate solution (equal volume of stabilized hydrogen peroxide and stabilized chromogen) was added to each well, and the test plate was incubated for 30 min at 25°C on the benchtop in darkness. Finally, the reaction was stopped by adding 100 μL of stop solution (2 N sulfuric acid) to each well. Optical densities at 450 and 540 nm were measured using the VersaMax microplate reader. The readings at 540 nm were subtracted from the readings at 450 nm. The cAMP concentrations were expressed as nmol/μg protein. Results were expressed as mean ± SE of duplicate samples of three independent experiments.

[5] = biological target: AChE from A. aegypti larvae (Aedes aegypti, UniProt A4GND7); assay: Acetylcholinesterase assay (microplate); type: biochemical; conditions: acetylthiocholine iodide hydrolysis at 30°C and pH 8.0
Description: Third instar larvae of A. aegypti was used in all experiments. […] After filtering through cheese cloth, the homogenate was centrifuged at 1000 g at 4°C for 5 min. The supernatant was used as the acetylcholinesterase (AChE) preparation. Protein content was determined by the Bradford dye method using BSA as the standard. Microplate AChE assay was carried out following the method of Hemingway et al. adapted from Ellman et al.. The reaction mixture consisted of 50 μL of the crude enzyme preparation, 150 μL of 0.1 M phosphate buffer, 20 μL of 3 mM DTNB in phosphate buffer (pH 7.0), and 1 μL of various concentrations of each test compound in ethanol. The reaction mixture was incubated at 30°C for 5 min and 20 μL of 32 mM ATChI was then added to the mixture. After incubation for 30 min, the reaction was stopped by adding 20 μL of 5 mM eserine salicylate. The absorbance was recorded at 412 nm using a VersaMax microplate reader (Molecular Devices, Sunnyvale, CA). Results were expressed as mean ± SE of triplicate samples of three independent experiments.
IC50 values and cAMP levels were subjected to ANOVA. […] Means ± SE of untransformed data are reported. Concentration–mortality data were subjected to probit analysis.

[6] = system: different mosquito species larvae; conditions: cited from earlier work

Sequence of AChE from A. aegypti larvae (A4GND7 37-679): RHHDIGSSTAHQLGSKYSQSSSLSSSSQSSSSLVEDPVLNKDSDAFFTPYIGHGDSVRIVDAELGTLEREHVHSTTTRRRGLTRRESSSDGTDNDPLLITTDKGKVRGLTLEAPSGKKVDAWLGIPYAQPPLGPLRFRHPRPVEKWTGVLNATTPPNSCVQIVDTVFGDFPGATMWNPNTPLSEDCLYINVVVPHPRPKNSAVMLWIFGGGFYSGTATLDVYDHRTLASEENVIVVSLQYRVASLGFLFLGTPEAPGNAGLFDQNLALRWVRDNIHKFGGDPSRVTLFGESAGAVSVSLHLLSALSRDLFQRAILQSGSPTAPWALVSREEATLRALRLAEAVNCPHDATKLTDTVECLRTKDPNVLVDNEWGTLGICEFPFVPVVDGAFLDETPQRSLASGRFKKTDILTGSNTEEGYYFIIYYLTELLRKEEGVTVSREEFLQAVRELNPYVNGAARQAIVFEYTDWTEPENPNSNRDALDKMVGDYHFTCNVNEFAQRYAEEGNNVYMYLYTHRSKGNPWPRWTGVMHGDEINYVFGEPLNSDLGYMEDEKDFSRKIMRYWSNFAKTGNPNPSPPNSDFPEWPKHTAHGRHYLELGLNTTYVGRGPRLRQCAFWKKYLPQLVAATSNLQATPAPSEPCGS

Molecule	LC50 [1]	LC50 [2]	LC50 [3]	other results
CCCCCCCC/C=C\CCCCCCCC(=O)OCC [Ethyl oleate, ethyl oleate]	> 200 mg/L	> 200 mg/L	> 200 mg/L	–
CCCCCCCCCCCCCCCC(=O)O [Palmitic acid (4), palmitic acid]	34.5 mg/L (≈ 135 µM)	43 mg/L (≈ 168 µM)	85.6 mg/L (≈ 334 µM)	cAMP level compared with that induced by octopamine [4]: significantly lower than that induced by octopamine; AChE inhibition IC50 [5]: lowest of any of the compounds examined
COP(=S)(OC)Oc1ccc(SC)c(C)c1 [Fenthion, fenthion, reference compound]	0.027 mg/L (≈ 0.097 µM)	0.022 mg/L (≈ 0.079 µM)	0.033 mg/L (≈ 0.119 µM)	–
COc1ccc2ccc(=O)oc2c1CC=C(C)C [osthole]	–	–	–	LC50 ([6]; coumarins): 3.14 mg/L (≈ 12.9 µM)
CCOC(=O)/C=C/c1ccccc1 [ethyl cinnamate]	–	–	–	LC50 ([6]; phenylpropanoids): 12.3 mg/L (≈ 69.8 µM)
O=c1c2c(oc3c1ccc1occc13)COc1ccccc1-2 [Pongarotene (6), pongarotene]	25.5 mg/L (≈ 87.9 µM)	37.6 mg/L (≈ 130 µM)	65 mg/L (≈ 224 µM)	–
C=C[C@@H](O)C#CC#C[C@@H](O)/C=C\CCCCCCC [falcarindiol]	–	–	–	LC50 ([6]; acetylenic alcohols): 6.51 mg/L (≈ 25 µM)
eupomatenoid-5	–	–	–	LC50 ([6]; neolignans): < 10 mg/L
piperonaline	–	–	–	LC50 ([6]; alkaloid): 0.21 to 0.25 mg/L
CCCCC/C=C\C/C=C\CCCCCCCC(=O)OCC [Ethyl linoleate, ethyl linoleate]	> 200 mg/L	> 200 mg/L	> 200 mg/L	–
CCCCCCCCCCCCCCCCCCCCCC(=O)O [Behenic acid, behenic acid]	68.8 mg/L (≈ 202 µM)	86.8 mg/L (≈ 255 µM)	105 mg/L (≈ 309 µM)	cAMP level compared with that induced by octopamine [4]: significantly higher than that induced by octopamine
CCCCCCCC/C=C\CCCCCCCC(=O)OC [Methyl oleate, methyl oleate]	> 200 mg/L	> 200 mg/L	> 200 mg/L	–
CCCCCCCC/C=C/CCCCCCCC(=O)O [Elaidic acid, elaidic acid]	28.2 mg/L (≈ 99.9 µM)	32.2 mg/L (≈ 114 µM)	66.3 mg/L (≈ 235 µM)	cAMP level compared with that induced by octopamine [4]: significantly higher than that induced by octopamine
C/C=C/c1ccc2c(c1)[C@@H](C)[C@H](c1ccc(O)cc1)O2 [conocarpan]	–	–	–	LC50 ([6]; neolignans): < 10 mg/L
C/C=C/c1cc(OC)c(OC)cc1OC [α-asarone]	–	–	–	LC50 ([6]; phenylpropanoids): 26.99 mg/L (≈ 130 µM)
CCCCCCCCCCCCCCCCCCCC(=O)O [Arachidic acid, arachidic acid]	–	–	–	cAMP level compared with that induced by octopamine [4]: significantly higher than that induced by octopamine
C=C1CC[C@H]2C(C)(C)CCC[C@]2(C)[C@H]1C/C=C(/C=O)CC=O [labda-8(17)-diene-15,16-dial]	–	–	–	LC50 ([6]; terpenoid): < 10 mg/L
CCCCOCc1ccc(O)cc1 [4-butoxymethylphenol]	–	–	–	LC50 ([6]; phenol): 0.05 mg/L (≈ 0.277 µM)

Molecule	LC50 [1]	LC50 [2]	LC50 [3]	other results
COc1c(-c2ccccc2)oc2c3c(ccc2c1=O)OC(C)(C)C=C3 [Karanjachromene (2), karanjachromene]	18.7 mg/L (≈ 56 µM)	20.6 mg/L (≈ 61.5 µM)	53 mg/L (≈ 158 µM)	–
C=C[C@H](O)C#CC#CC/C=C\CCCCCCC [falcarinol]	–	–	–	LC50 ([6]; acetylenic alcohols): 3.49 mg/L (≈ 14.3 µM)
CCCCCCCCCCCCCCCCCC(=O)O [Stearic acid, stearic acid]	> 200 mg/L	> 200 mg/L	> 200 mg/L	–
CCCCC/C=C\C/C=C\CCCCCCCC(=O)OC [Methyl linoleate, methyl linoleate]	> 200 mg/L	> 200 mg/L	> 200 mg/L	–
O=C1C=CC[C@H](/C=C/c2ccccc2)O1 [goniothalmin]	–	–	–	LC50 ([6]; lactone): 0.87 to 25.95 mg/L
COP(=S)(OC)Oc1ccc(Sc2ccc(OP(=S)(OC)OC)cc2)cc1 [Temephos, temephos, reference compound]	0.013 mg/L (≈ 0.0279 µM)	0.015 mg/L (≈ 0.0322 µM)	0.01 mg/L (≈ 0.0214 µM)	–
CCCCCCCC/C=C\CCCCCCCC(=O)O [Oleic acid (3), oleic acid]	18.1 mg/L (≈ 64 µM)	18.4 mg/L (≈ 65.3 µM)	18.8 mg/L (≈ 66.5 µM)	cAMP level compared with that induced by octopamine [4]: significantly lower than that induced by octopamine
CC#CC#CC(=O)c1ccccc1 [capillin]	–	–	–	LC50 ([6]; polyacetylene): < 10 mg/L
N#C[C@@H](O[C@@H]1O[C@H](CO)[C@@H](O)[C@H](O)[C@H]1O)c1ccc(O)cc1 [dhurrin]	–	–	–	LC50 ([6]; cyanogenic glycoside): 1.12 mg/L (≈ 3.6 µM)
COc1c(-c2ccccc2)oc2c(ccc3occc32)c1=O [Karanjin (1), karanjin]	14.6 mg/L (≈ 50 µM)	16.1 mg/L (≈ 55.2 µM)	35.3 mg/L (≈ 121 µM)	–
C/C=C/c1ccc2oc(-c3ccc(O)cc3)c(C)c2c1 [eupomatenoid-6]	–	–	–	LC50 ([6]; neolignans): < 10 mg/L
pongamol [Pongamol (5)]	–	–	–	LC50, mg/L (95% CL) ([1]; compounds, third instar Culex pipiens pallens larvae, 24 h exposure): 23.95 (20.68–27.34) mg/L; LC50, mg/L (95% CL) ([2]; compounds, third instar Aedes aegypti larvae, 24 h exposure): 25.76 (22.44–29.35) mg/L; LC50, mg/L (95% CL) ([3]; compounds, third instar larvae from wild Aedes albopictus, 24 h exposure): 56.14 (49.50–64.69) mg/L
CCCCC/C=C\C/C=C\CCCCCCCC(=O)O [Linoleic acid, linoleic acid]	20.1 mg/L (≈ 71.8 µM)	21.3 mg/L (≈ 75.9 µM)	68.9 mg/L (≈ 246 µM)	cAMP level compared with that induced by octopamine [4]: significantly higher than that induced by octopamine
CC(C)=CCOc1c2occc2cc2ccc(=O)oc12 [imperatorin]	–	–	–	LC50 ([6]; coumarins): 2.88 mg/L (≈ 10.7 µM)
COC1=C[C@@H](C)[C@@H]2C[C@H]3OC(=O)C[C@H]4C(C)=C(OC)C(=O)[C@H]([C@@]2(C)C1=O)[C@@]34C [quassin]	–	–	–	LC50 ([6]; terpenoid): 6.0 mg/L (≈ 15.4 µM)
CC/C=C\C/C=C\C/C=C\CCCCCCCC(=O)O [Linolenic acid, linolenic acid]	21.3 mg/L (≈ 76.6 µM)	22.6 mg/L (≈ 81.1 µM)	71.3 mg/L (≈ 256 µM)	cAMP level compared with that induced by octopamine [4]: significantly higher than that induced by octopamine
CCOC(=O)C=Cc1ccc(OC)cc1 [ethyl p-methoxycinnamate]	–	–	–	LC50 ([6]; phenylpropanoids): 20.7 mg/L (≈ 100 µM)
